From patent publication US20130131321A1, “LIGANDS FOR ANTIBODY AND Fc-FUSION PROTEIN PURIFICATION BY AFFINITY CHROMATOGRAPHY” (GRAFFINITY PHARMACEUTICALS GMBH, priority 2010, published 2013)
Like-named read-outs stand apart in the source and are kept apart here.

Assays:
Bevacizumab [1] = molecular target: T1, Bevacizumab (Homo sapiens, UniProt P01857); assay: Microtiter plate chromatography of resins, Bevacizumab whole IgG (bound, yield, selectivity); assay type: binding, humanized
T1 construct: fused on or other part: humanised anti-VEGF-A VH domain N-terminal of the gamma-1 constant region (engineered, no UniProt entry)
Procedure: (§1) Resins were assessed in packed mode by microtiter plate chromatography. For each column, approximately 30 μl of resin were transferred to a 384-well filter plate and sealed with appropriate top frits.
(§2) Columns were equilibrated with 6.7 column volumes (cv) of phosphate buffered saline (0.15 M NaCl, 20 mM sodium phosphate, pH 7.3; PBS) prior to injection. Either 3.3 cv of whole IgGs dissolved at 0.75 mg ml^−1, Fab or Fc fragments dissolved at 0.25 mg ml^−1 (all three in PBS) or host cell proteins (HCP) were injected onto columns. Antibody fragments of Bevacizumab (Fab and Fc) were prepared by cleavage of whole IgG with papain protease (3) according to the protocol of the manufacturer. […] Volumes transferred were spun through columns at 50 g for 1-2 min. During injection of samples, acceleration was reduced to 10 g and centrifugation time increased to 5-10 min. Effluent fractions were collected in 384-well plates and concentrations of protein analyzed by Bradford assay. Protein masses mi, mft and me (see below) were calculated as the product of fraction volume and measured protein concentration.
(§3) The fraction of ‘bound’ protein was calculated as the difference between the total mass of protein injected mi and the mass of protein detected in the flowthrough mft, divided by the total mass of protein injected.
(§4) The ‘yield’ of protein was calculated as the mass of protein eluted me, divided by the mass of protein injected mi.
(§5) The ‘selectivity’ of resins was calculated as the fraction of bound antibody BAb, divided by the fraction of bound host cell proteins BHCP.
(§6) the fraction of ‘bound’ protein and the ‘yield’ of protein were calculated for each resin based on data for whole IgG-antibodies. In the case of Bevacizumab fragments and host cell proteins, only the fraction of ‘bound’ protein is given. Selectivity of resins was calculated from data for Bevacizumab Whole IgG and host cell proteins. Due to limited experimental precision, selectivity was truncated beyond values of 10.

Bevacizumab [2] = assay: as above; assay type: binding, humanized
Procedure: as §1, §2, §3, §4, §5, §6

Tocilizumab = assay: Microtiter plate chromatography of resins, Tocilizumab (bound, yield); assay type: binding, humanized
Procedure: as §1, §2, §3, §4, §6

Palivizumab = assay: Microtiter plate chromatography of resins, Palivizumab (bound, yield); assay type: binding, humanized
Procedure: as §1, §2, §3, §4, §6

[3] = system: human poly-IgG (h-poly-IgG); assay: Microtiter plate chromatography of resins, human poly-IgG (bound, yield); assay type: binding
Procedure: as §1, §2, §3, §4, §6

host cell proteins (HCP) = assay: Microtiter plate chromatography of resins, host cell proteins (bound); assay type: binding, CHO
Procedure: Flowthrough from protein A chromatography (referred to as host cell proteins) was derived from the supernatant of antibody-producing CHO cell culture in serum-free medium.
as §1, §2, §3, §6

[4] = fraction of whole IgG Bevacizumab bound to resin
[5] = mass of whole IgG Bevacizumab eluted / mass injected
[6] = fraction of bound Bevacizumab whole IgG / fraction of bound HCP, truncated beyond values of 10
[7] = fraction of injected whole IgG bound to resin
[8] = mass eluted / mass injected, whole IgG
[9] = fraction of injected protein bound to resin
[10] = fraction of injected host cell proteins bound to resin
[11] = bound Bevacizumab whole IgG / bound HCP, truncated beyond values of 10

| SMILES | Bevacizumab IgG Bound (%) (Bevacizumab [1]; [4]) | Bevacizumab IgG Yield (%) (Bevacizumab [1]; [5]) | Selectivity (Bevacizumab [2]) | Tocilizumab Bound (%) (Tocilizumab) | Tocilizumab Yield (%) (Tocilizumab) | Palivizumab Bound (%) (Palivizumab) | Palivizumab Yield (%) (Palivizumab) | h-poly-IgG Bound (%) [3] [%] | h-poly-IgG Yield (%) [3] [%] | HCP Bound (%) (host cell proteins (HCP); host cell proteins) | other results |
| --- | --- | --- | --- | --- | --- | --- | --- | --- | --- | --- | --- |
| COc1ccc(NC(=O)c2nc(-c3ccco3)no2)cc1C(=O)NCCCN [Ligand L55, 5-[3-(2-Furyl)-1,2,4-oxadiazol-5-ylcarboxamido]-2-methoxybenzoic acid (3-amino-1-propyl)amide] | 100 | 95 | 3.3 | 100 | 100 | 100 | 99 | 100 | 93 | 31 |  |
| COc1ccc(NC(=O)c2cc(-c3ccco3)[nH]n2)cc1C(=O)NCCCN [Ligand L20, 5-[5-(2-Furyl)pyrazol-3-yl]carboxamido-2-methoxybenzoic acid N-(3-aminopropyl)amide] | 100 | 96 | 2.1 | 100 | 96 | 97 | 84 | 93 | 82 | 47 |  |
| COc1ccc(NC(=O)c2cn(C)c3ccccc23)cc1C(=O)NCCCN [Ligand L25, 2-Methoxy-5-(1-methylindol-3-yl)carboxamidobenzoic acid N-(3-aminopropyl)amide] | 100 | 95 | 2.2 | 100 | 93 | 82 | 78 | 93 | 81 | 46 |  |
| COc1ccc(NC(=O)c2nn(C)c3ncccc23)cc1C(=O)NCCCN [Ligand L44, 2-Methoxy-5-(1-methylpyrazolo[3,4-b]pyridin-3-ylcarboxamido)benzoic acid (3-amino-1-propyl)amide] | 100 | 100 |  | 78 | 78 | 56 | 56 | 73 | 73 | 4 | Selectivity (Bevacizumab [2]; [6]): 10.0 |
| Cn1nc(NC(=O)c2cccc(C(=O)NCCCN)c2)c2ccccc21 [Ligand L71, Isophthalic acid N-(3-aminopropyl)-N′-(1-methylindazol-3-yl)amide] |  |  | 4.0 |  |  |  |  |  |  |  | Bevacizumab IgG Bound (%) (Bevacizumab [1]; [7]): 100%; Bevacizumab IgG Yield (%) (Bevacizumab [1]; [8]): 88%; Tocilizumab Bound (%) (Tocilizumab; [9]): 51%; Tocilizumab Yield (%) (Tocilizumab; mass eluted / mass injected): 49%; Palivizumab Bound (%) (Palivizumab; [9]): 24%; Palivizumab Yield (%) (Palivizumab; mass eluted / mass injected): 24%; h-poly-IgG Bound (%) [3, 9]: 45%; h-poly-IgG Yield (%) ([3]; mass eluted / mass injected): 45%; HCP Bound (%) (host cell proteins (HCP); [10]): 25% |
| COc1ccc(NC(=O)c2cn3ccsc3n2)cc1C(=O)NCCOCCOCC(=O)NCCOCCOCC(=O)NCCCN [Ligand L66, 8-{8-[5-(Imidazo[2,1-b]thiazol-6-ylcarboxamido)-2-methoxyphenylcarboxamido]-3,6-dioxaoctanoylamido}-3,6-dioxaoctanoic acid (3-amino-1-propyl)amide] |  |  |  |  |  |  |  |  |  |  | Bevacizumab IgG Bound (%) (Bevacizumab [1]; [7]): 100%; Bevacizumab IgG Yield (%) (Bevacizumab [1]; [8]): 100%; Selectivity (Bevacizumab [2]; [11]): 10.0; Tocilizumab Bound (%) (Tocilizumab; [9]): 54%; Tocilizumab Yield (%) (Tocilizumab; mass eluted / mass injected): 53%; Palivizumab Bound (%) (Palivizumab; [9]): 41%; Palivizumab Yield (%) (Palivizumab; mass eluted / mass injected): 27%; h-poly-IgG Bound (%) [3, 9]: 46%; h-poly-IgG Yield (%) ([3]; mass eluted / mass injected): 46%; HCP Bound (%) (host cell proteins (HCP); [10]): 0% |
| COc1ccc(NC(=O)c2cc(-c3csc(C)n3)on2)cc1C(=O)NCCCN [Ligand L42, 2-Methoxy-5-[5-(2-methylthiazol-4-yl)isoxazol-3-ylcarboxamido]benzoic acid (3-amino-1-propyl)amide] | 100 | 92 | 3.1 | 100 | 99 | 99 | 99 | 100 | 100 | 32 |  |
| COc1ccc(NC(=O)c2nn(CC(O)CO)c3ccccc23)cc1C(=O)NCCCN (racemic) [Ligand L40, (RS)-5-[1-(2,3-Dihydroxy-1-propyl)indazol-3-ylcarboxamido]-2-methoxybenzoic acid (3-amino-1-propyl)amide] | 100 | 100 | 4.5 | 90 | 90 | 62 | 62 | 98 | 97 | 22 |  |
| COc1ccc(NC(=O)c2nc3cccnc3[nH]2)cc1C(=O)NCCCN [Ligand L41, 5-(3H-Imidazo[4,5-b]pyridin-2-ylcarboxamido)-2-methoxybenzoic acid (3-amino-1-propyl)amide] | 100 | 100 |  | 91 | 91 | 74 | 71 | 85 | 85 | 9 | Selectivity (Bevacizumab [2]; [6]): 10.0 |
| COc1ccc(NC(=O)c2cc(C(F)(F)F)n(C)n2)cc1C(=O)NCCCN [Ligand L34, 2-Methoxy-5-[1-methyl-5-(trifluoromethyl)pyrazol-3-yl]carboxamidobenzoic acid N-(3-aminopropyl)amide] | 100 | 89 | 2.6 | 85 | 80 | 73 | 72 | 78 | 61 | 39 |  |
| COc1ccc(NC(=O)c2cc(C)n(C)n2)cc1C(=O)NCCCN [Ligand L33, 5-(1,5-Dimethylpyrazol-3-yl)carboxamido-2-methoxybenzoic acid N-(3-aminopropyl)amide] | 99 | 83 | 5.8 | 48 | 51 | 33 | 31 | 51 | 39 | 17 |  |
| COc1ccc(NC(=O)c2nnc3ccccn23)cc1C(=O)NCCCN [Ligand L43, 2-Methoxy-5-([1,2,4]triazolo[4,3-a]pyridin-3-ylcarboxamido)benzoic acid (3-amino-1-propyl)amide] | 100 | 90 | 8.0 | 88 | 88 | 61 | 43 | 90 | 90 | 13 |  |
| COc1ccc(NC(=O)c2cn3ccsc3n2)cc1C(=O)NCCOCCOCCNC(=O)NCCOCCOCCN [Ligand L69, N-(8-Amino-3,6-dioxaoctyl)-N′-{8-[5-(imidazo[2,1-b]thiazol-6-ylcarboxamido)-2-methoxyphenylcarboxamido]-3,6-dioxaoctyl}urea] |  |  |  |  |  |  |  |  |  |  | Bevacizumab IgG Bound (%) (Bevacizumab [1]; [7]): 100%; Bevacizumab IgG Yield (%) (Bevacizumab [1]; [8]): 100%; Selectivity (Bevacizumab [2]; [11]): 10.0; Tocilizumab Bound (%) (Tocilizumab; [9]): 78%; Tocilizumab Yield (%) (Tocilizumab; mass eluted / mass injected): 73%; Palivizumab Bound (%) (Palivizumab; [9]): 45%; Palivizumab Yield (%) (Palivizumab; mass eluted / mass injected): 45%; h-poly-IgG Bound (%) [3, 9]: 63%; h-poly-IgG Yield (%) ([3]; mass eluted / mass injected): 63%; HCP Bound (%) (host cell proteins (HCP); [10]): 2% |
| COc1ccc(NC(=O)c2cn3ccsc3n2)cc1C(=O)NCCCCCC(=O)NCCOCCOCCN [Ligand L76, 6-[5-(Imidazo[2,1-b]thiazol-6-ylcarboxamido)-2-methoxyphenylcarboxamido]hexanoic acid (8-amino-3,6-dioxa-1-octyl)amide] |  |  |  |  |  |  |  |  |  |  | Bevacizumab IgG Bound (%) (Bevacizumab [1]; [7]): 100%; Bevacizumab IgG Yield (%) (Bevacizumab [1]; [8]): 98%; Selectivity (Bevacizumab [2]; [11]): 10.0; Tocilizumab Bound (%) (Tocilizumab; [9]): 93%; Tocilizumab Yield (%) (Tocilizumab; mass eluted / mass injected): 89%; Palivizumab Bound (%) (Palivizumab; [9]): 59%; Palivizumab Yield (%) (Palivizumab; mass eluted / mass injected): 59%; h-poly-IgG Bound (%) [3, 9]: 73%; h-poly-IgG Yield (%) ([3]; mass eluted / mass injected): 73%; HCP Bound (%) (host cell proteins (HCP); [10]): 9% |
